Measured values from ChEMBL document CHEMBL5126555, “Targeting breast cancer resistance protein (BCRP/ABCG2): Functional inhibitors and expression modulators” (Eur J Med Chem, 2022).
Values belong to the compound of their own block, whether it stands above or below them.

Assays:
[1] = molecular target: T1, Broad substrate specificity ATP-binding cassette transporter ABCG2 (Homo sapiens, UniProt Q9UNQ0); experiment: Inhibition of ABCG2 (unknown origin) expressed in human HEK293 cells mediated mitoxantrone efflux assessed as intracellular mitoxantrone level and measured after 30 mins by FACSflow cytometry analysis; assay type: cell-based
T1 sequence (Q9UNQ0 whole entry): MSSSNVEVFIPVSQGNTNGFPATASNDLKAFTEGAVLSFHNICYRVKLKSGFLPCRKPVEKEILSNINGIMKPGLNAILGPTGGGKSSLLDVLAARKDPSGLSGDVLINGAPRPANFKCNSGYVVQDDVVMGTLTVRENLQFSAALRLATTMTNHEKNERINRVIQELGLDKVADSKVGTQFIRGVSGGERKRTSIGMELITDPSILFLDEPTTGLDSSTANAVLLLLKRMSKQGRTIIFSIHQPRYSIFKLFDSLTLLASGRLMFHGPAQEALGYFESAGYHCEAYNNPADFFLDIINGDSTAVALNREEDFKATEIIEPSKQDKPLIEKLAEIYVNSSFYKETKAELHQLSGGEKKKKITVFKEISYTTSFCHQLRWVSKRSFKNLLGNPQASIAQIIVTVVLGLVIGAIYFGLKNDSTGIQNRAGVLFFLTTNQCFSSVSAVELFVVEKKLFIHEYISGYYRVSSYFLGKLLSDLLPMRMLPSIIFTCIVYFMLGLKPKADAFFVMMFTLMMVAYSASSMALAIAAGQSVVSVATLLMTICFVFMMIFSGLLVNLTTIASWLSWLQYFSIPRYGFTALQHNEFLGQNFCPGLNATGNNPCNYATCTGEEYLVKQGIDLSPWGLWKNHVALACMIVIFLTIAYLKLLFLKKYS

[2] = molecular target: T1, Broad substrate specificity ATP-binding cassette transporter ABCG2; experiment: Inhibition of ABCG2 (unknown origin) expressed in human K562 cells assessed as extrusion of Hoechst 33342 using Hoechst 33342 as substrate by flow cytometry; assay type: cell-based
[3] = molecular target: T1, Broad substrate specificity ATP-binding cassette transporter ABCG2; experiment: Inhibition of ABCG2 (unknown origin) expressed in human MCF7-VP cells mediated mitoxantrone efflux assessed as intracellular mitoxantrone level and measured after 45 mins by flow cytometry analysis; assay type: cell-based
[4] = molecular target: T1, Broad substrate specificity ATP-binding cassette transporter ABCG2; experiment: Inhibition of human ABCG2 expressed in dog MDCK-II-BCRP cells membrane vesicles mediated transport of 3[H]-methotrexate for 5 mins using [3H]-methotrexate as substrate by radiometric scintillation analysis; assay type: cell membranes, Membrane vesicle
[5] = molecular target: T1, Broad substrate specificity ATP-binding cassette transporter ABCG2; experiment: Inhibition of human ABCG2 expressing membrane vesicles assessed inhibition of BCRP- mediated transport of [3H]estrone 3-sulfate for 2 mins using [3H]-estrone sulfate as substrate by radiometric scintillation analysis; assay type: cell membranes, Membrane vesicle
[6] = molecular target: T1, Broad substrate specificity ATP-binding cassette transporter ABCG2
Description: Inhibition of ABCG2 (unknown origin) expressed in human MCF7 cells membrane mediated [125I]iodoarylazidoprazosin photolabelling for 5 mins followed by UV light irradiation for 10 mins by radiometric scintillation analysis

[7] = molecular target: T1, Broad substrate specificity ATP-binding cassette transporter ABCG2; experiment: Inhibition of human ABCG2 expressed in human HEK293 cells mediated pheophorbide A efflux assessed as intracellular pheophorbide A accumulation for 45 mins by FACSort flow cytometry; assay type: cell-based
[8] = molecular target: T1, Broad substrate specificity ATP-binding cassette transporter ABCG2; experiment: Inhibition of ABCG2 (unknown origin) expressed in human S1M180 cells mediated [3H]-mitoxantrone efflux assessed as intracellular [3H]-mitoxantrone level by flow cytometry; assay type: cell-based
[9] = molecular target: T1, Broad substrate specificity ATP-binding cassette transporter ABCG2; experiment: Inhibition of ABCG2 (unknown origin) expressed in human NCI-H460 cells mediated pheophorbide A efflux for 2 to 20 hr by fluorescence plate reader analysis; assay type: cell-based
[10] = molecular target: T1, Broad substrate specificity ATP-binding cassette transporter ABCG2; settings: saos-2
Description: Inhibition of ABCG2 (unknown origin) expressed in human SAOS-2 cells mediated Hoechst 33342 efflux preincubated with compound for 15 mins followed by substrate addition and measured after 45 mins using Hoechst 33342 as substrate by flow cytometry

[11] = molecular target: T1, Broad substrate specificity ATP-binding cassette transporter ABCG2; experiment: Inhibition of ABCG2 (unknown origin) expressed in human MCF7 cells membrane mediated [125I]iodoarylazidoprazosin photolabelling for 10 mins followed by UV light irradiation for 10 mins by radiometric scintillation analysis; assay type: cell membranes
[12] = molecular target: T1, Broad substrate specificity ATP-binding cassette transporter ABCG2; experiment: Inhibition of ABCG2 (unknown origin) expressed in human S1M180 cells assessed as intracellular accumulation of rhodamine 123 using rhodamine 123 as substrate by flow cytometry; assay type: cell-based
[13] = molecular target: T1, Broad substrate specificity ATP-binding cassette transporter ABCG2; experiment: Inhibition of ABCG2 (unknown origin) expressed in human HEK293 cells assessed as BODIPY-Prazosin uptake and measured after 2 hrs by FACScan flow cytometry analysis; assay type: cell-based

SMILES: c1ccc2c(c1)OCO2
- IC50 [1]: 0.94 µM

SMILES: COc1cc(Nc2c(C#N)cnc3cc(OCCCN4CCN(C)CC4)c(OC)cc23)c(Cl)cc1Cl [BOSUTINIB]
- IC50 [2]: 2 µM

SMILES: COc1cc(/C=C/C(=O)CC(=O)/C=C/c2ccc(O)c(OC)c2)ccc1O [CURCUMIN]
- IC50 [3]: 1.63 µM

SMILES: COC(=O)C1=C(C)NC(C)=C(C(=O)OC)C1c1ccccc1[N+](=O)[O-] [NIFEDIPINE]
- IC50 [7]: 50.5 µM

SMILES: CNC(=O)c1cc(Oc2ccc(NC(=O)Nc3ccc(Cl)c(C(F)(F)F)c3)c(F)c2)ccn1 [REGORAFENIB]
- IC50 [8]: 3 µM

SMILES: COc1cc2nccc(Oc3ccc(NC(=O)Nc4cc(C)on4)c(Cl)c3)c2cc1OC [TIVOZANIB]
- IC50 [11]: 0.07 µM

More lines, now with the values ahead:

- IC50 [4]: 3.1 µM
SMILES: CC1=NN(c2ccc(C)c(C)c2)C(=O)/C1=N\Nc1cccc(-c2cccc(C(=O)O)c2)c1O [ELTROMBOPAG]

- IC50 [5]: 0.05 µM
SMILES: COc1cc(Nc2ncc(F)c(Nc3ccc4c(n3)N(COP(=O)(O)O)C(=O)C(C)(C)O4)n2)cc(OC)c1OC [FOSTAMATINIB]

- IC50 [6]: 3.2 µM
SMILES: CS(=O)(=O)CCNCc1ccc(-c2ccc3ncnc(Nc4ccc(OCc5cccc(F)c5)c(Cl)c4)c3c2)o1 [LAPATINIB]

- IC50 [9]: 11.8 µM
SMILES: COC(=O)[C@H]1[C@H]2C[C@@H]3c4[nH]c5cc(OC)ccc5c4CCN3C[C@H]2C[C@@H](OC(=O)c2cc(OC)c(OC)c(OC)c2)[C@@H]1OC [RESERPINE]

- IC50 [10]: 3.1 µM
SMILES: CNC(=O)c1cc(Oc2ccc(NC(=O)Nc3ccc(Cl)c(C(F)(F)F)c3)cc2)ccn1 [SORAFENIB]

- IC50 [12]: 0.2 µM
SMILES: COc1cc2c(Nc3ccc(Br)cc3F)ncnc2cc1OCC1CCN(C)CC1 [VANDETANIB]

- IC50 [13]: 1.4 µM
SMILES: CS(=O)(=O)c1ccc(C(=O)Nc2ccc(Cl)c(-c3ccccn3)c2)c(Cl)c1 [VISMODEGIB]
